Results taken from ChEMBL document CHEMBL1201862, “PubChem BioAssay data set” (2004).
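Tested at 5 concentrations; 48 h exposure; 96-well plates; endpoints linearly interpolated, else capped at highest concentration. The concentration for 50% growth inhibition is given as GI50.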 The source made the active and inactive calls. No stated cut-off is given here; in the data, active = GI50 up to about 1.1 µM and inactive = higher.

Legend:
Assay in all cases: NCI-60 cell line screen, 48 h
786-0 = test system: 786-0
A498 = test system: A498
A549 = test system: A549
ACHN = test system: ACHN
BT-549 = test system: BT-549
CAKI-1 = test system: CAKI-1
CCRF-CEM = test system: CCRF-CEM
COLO 205 = test system: COLO 205
DU-145 = test system: DU-145
EKVX = test system: EKVX
HCC 2998 = test system: HCC 2998
HCT-116 = test system: HCT-116
HCT-15 = test system: HCT-15
HL-60 = test system: HL-60
HOP-62 = test system: HOP-62
HT-29 = test system: HT-29
Hs-578T = test system: Hs-578T
IGROV-1 = test system: IGROV-1
K562 = test system: K562
KM12 = test system: KM12
LOX IMVI = test system: LOX IMVI
M14 = test system: M14
MCF7 = test system: MCF7
MDA-MB-231 = test system: MDA-MB-231
MDA-MB-435 = test system: MDA-MB-435
MDA-N = test system: MDA-N
MOLT-4 = test system: MOLT-4
Malme-3M = test system: Malme-3M
NCI-H23 = test system: NCI-H23
NCI-H460 = test system: NCI-H460
NCI-H522 = test system: NCI-H522
NCI/ADR-RES = test system: NCI/ADR-RES
OVCAR-3 = test system: OVCAR-3
OVCAR-4 = test system: OVCAR-4
OVCAR-5 = test system: OVCAR-5
OVCAR-8 = test system: OVCAR-8
PC-3 = test system: PC-3
RPMI-8226 = test system: RPMI-8226
RXF 393 = test system: RXF 393
SF-268 = test system: SF-268
SF-295 = test system: SF-295
SF-539 = test system: SF-539
SK-MEL-28 = test system: SK-MEL-28
SK-MEL-2 = test system: SK-MEL-2
SK-MEL-5 = test system: SK-MEL-5
SK-OV-3 = test system: SK-OV-3
SN12C = test system: SN12C
SNB-19 = test system: SNB-19
SR = test system: SR
SW-620 = test system: SW-620
T47D = test system: T47D
TK-10 = test system: TK-10
U-251 = test system: U-251
UACC-257 = test system: UACC-257
UACC-62 = test system: UACC-62
UO-31 = test system: UO-31
HOP-92 = test system: HOP-92
NCI-H226 = test system: NCI-H226
SNB-75 = test system: SNB-75

For COC1=C(OC)C(=O)C(Cc2c(-c3ccccc3)nc3sc(Cl)cn23)=C(C)C1=O, the GI50 (786-0) was 19.6 µM (inactive), the GI50 (A498) was 20.2 µM (inactive) and the GI50 (A549) was 21.7 µM (inactive). For the same molecule, the GI50 (ACHN) was 16 µM (inactive), the GI50 (BT-549) was 15.7 µM (inactive) and the GI50 (CAKI-1) was 21 µM (inactive). For the same molecule, the GI50 (CCRF-CEM) was 13.7 µM (inactive), the GI50 (COLO 205) was 18.7 µM (inactive) and the GI50 (DU-145) was 20 µM (inactive). For the same molecule, the GI50 (EKVX) was 20.7 µM (inactive), the GI50 (HCC 2998) was 24.4 µM (inactive) and the GI50 (HCT-116) was 16.4 µM (inactive). The GI50 (HCT-15) was 14.5 µM, the GI50 (HL-60) was 7.91 µM (inactive) and the GI50 (HOP-62) was 19.5 µM (inactive). For the same molecule, the GI50 (HT-29) was 20.1 µM (inactive), the GI50 (Hs-578T) was 18.1 µM (inactive) and the GI50 (IGROV-1) was 14.9 µM (inactive). For the same molecule, the GI50 (K562) was 23.9 µM (inactive), the GI50 (KM12) was 17 µM (inactive) and the GI50 (LOX IMVI) was 23.7 µM (inactive). For the same molecule, the GI50 (M14) was 15.8 µM (inactive), the GI50 (MCF7) was 20.3 µM (inactive) and the GI50 (MDA-MB-231) was 11 µM (inactive). For the same molecule, the GI50 (MDA-MB-435) was 16.5 µM (inactive), the GI50 (MDA-N) was 16.3 µM (inactive) and the GI50 (MOLT-4) was 1.96 µM (inactive). For the same molecule, the GI50 (Malme-3M) was 16.5 µM (inactive), the GI50 (NCI-H23) was 17.8 µM (inactive) and the GI50 (NCI-H460) was 16 µM (inactive). The GI50 (NCI-H522) was 13.6 µM (inactive), the GI50 (NCI/ADR-RES) was 17.9 µM (inactive) and the GI50 (OVCAR-3) was 16.3 µM (inactive). For the same molecule, the GI50 (OVCAR-4) was 3.61 µM (inactive), the GI50 (OVCAR-5) was 28.2 µM (inactive) and the GI50 (OVCAR-8) was 15.2 µM (inactive). For the same molecule, the GI50 (PC-3) was 16.6 µM (inactive), the GI50 (RPMI-8226) was 13.5 µM (inactive) and the GI50 (RXF 393) was 17.1 µM (inactive). The GI50 (SF-268) was 18.8 µM (inactive), the GI50 (SF-295) was 17 µM (inactive) and the GI50 (SF-539) was 17.1 µM (inactive). For the same molecule, the GI50 (SK-MEL-28) was 13.8 µM (inactive), the GI50 (SK-MEL-2) was 15.6 µM (inactive) and the GI50 (SK-MEL-5) was 15.2 µM (inactive). For the same molecule, the GI50 (SK-OV-3) was 18.5 µM (inactive), the GI50 (SN12C) was 16.4 µM (inactive) and the GI50 (SNB-19) was 18.2 µM (inactive). The GI50 (SR) was 22.9 µM (inactive), the GI50 (SW-620) was 23.3 µM (inactive) and the GI50 (T47D) was 23.4 µM (inactive). The GI50 (TK-10) was 20 µM (inactive), the GI50 (U-251) was 18.5 µM (inactive) and the GI50 (UACC-257) was 16 µM (inactive). The GI50 (UACC-62) was 11.9 µM (inactive) and the GI50 (UO-31) was 15.8 µM (inactive).

COc1cccc(C2c3cc4c(cc3OC(N3CCCCC3)C2C)OCO4)c1O (centres undefined) was tested, and the GI50 (786-0) was 4.72 µM (inactive), the GI50 (A549) was 6.52 µM (inactive) and the GI50 (ACHN) was 6.55 µM (inactive). The GI50 (BT-549) was 9.2 µM (inactive), the GI50 (CAKI-1) was 5.48 µM (inactive) and the GI50 (CCRF-CEM) was 2.4 µM (inactive). For the same molecule, the GI50 (COLO 205) was 4.89 µM (inactive), the GI50 (DU-145) was 7.53 µM (inactive) and the GI50 (EKVX) was 14.7 µM (inactive). For the same molecule, the GI50 (HCC 2998) was 10.5 µM (inactive), the GI50 (HCT-116) was 4.89 µM (inactive) and the GI50 (HCT-15) was 4.21 µM. For the same molecule, the GI50 (HL-60) was 2.54 µM (inactive), the GI50 (HOP-62) was 4.11 µM (inactive) and the GI50 (HOP-92) was 8.18 µM (inactive). The GI50 (HT-29) was 3.43 µM (inactive), the GI50 (Hs-578T) was 3.63 µM (inactive) and the GI50 (IGROV-1) was 8.81 µM (inactive). The GI50 (K562) was 2.23 µM (inactive), the GI50 (KM12) was 4.47 µM (inactive) and the GI50 (LOX IMVI) was 5.21 µM (inactive). For the same molecule, the GI50 (M14) was 4.2 µM (inactive), the GI50 (MCF7) was 5.6 µM (inactive) and the GI50 (MDA-MB-231) was 11.2 µM (inactive). The GI50 (MDA-MB-435) was 1.75 µM (inactive), the GI50 (MDA-N) was 2.3 µM (inactive) and the GI50 (MOLT-4) was 3.96 µM (inactive). For the same molecule, the GI50 (Malme-3M) was 4.53 µM (inactive), the GI50 (NCI-H226) was 6.55 µM (inactive) and the GI50 (NCI-H23) was 7.31 µM (inactive). The GI50 (NCI-H460) was 4.13 µM (inactive), the GI50 (NCI-H522) was 2.74 µM (inactive) and the GI50 (NCI/ADR-RES) was 5.12 µM (inactive). For the same molecule, the GI50 (OVCAR-3) was 2.93 µM (inactive), the GI50 (OVCAR-4) was 7.38 µM (inactive) and the GI50 (OVCAR-5) was 17.7 µM (inactive). The GI50 (OVCAR-8) was 5.9 µM (inactive), the GI50 (PC-3) was 4.83 µM (inactive) and the GI50 (RPMI-8226) was 3.21 µM (inactive). For the same molecule, the GI50 (RXF 393) was 3.25 µM (inactive), the GI50 (SF-268) was 9.71 µM (inactive) and the GI50 (SF-295) was 4.26 µM (inactive). For the same molecule, the GI50 (SF-539) was 2.22 µM (inactive), the GI50 (SK-MEL-28) was 6.27 µM (inactive) and the GI50 (SK-MEL-2) was 9.16 µM (inactive). For the same molecule, the GI50 (SK-MEL-5) was 3.62 µM (inactive), the GI50 (SK-OV-3) was 6.79 µM (inactive) and the GI50 (SN12C) was 4.69 µM (inactive). The GI50 (SNB-19) was 7.93 µM (inactive), the GI50 (SNB-75) was 5.41 µM (inactive) and the GI50 (SR) was 3.01 µM (inactive). The GI50 (SW-620) was 3.97 µM (inactive), the GI50 (T47D) was 8.38 µM (inactive) and the GI50 (TK-10) was 13.8 µM (inactive). The GI50 (U-251) was 3.82 µM (inactive), the GI50 (UACC-257) was 8.04 µM (inactive) and the GI50 (UACC-62) was 5.92 µM (inactive). The GI50 (UO-31) was 12.4 µM (inactive).
